Consider 45 compounds from ChEMBL document CHEMBL5131532, “Synthesis and Evaluation of Small Molecule Disruptors of the Aha1/Hsp90 Complex for the Reduction of Tau Aggregation” (ACS Med Chem Lett, 2022).

As usually defined, the IC50 is the concentration at which inhibition is half-maximal.

The source made the active and inactive calls. No cut-off for these calls is given here.

Test system in the first test: not listed separately
The test is described as follows: Disruption of recombinant GST-tagged human Aha1/His6-tagged full length human Hsp90alpha protein-protein interaction expressed in Escherichia coli incubated for 4 hrs by AlphaLisa assay. On the technique in general: Bead proximity is the source of the signal in Alpha formats.
As for `COc1ccc(C(=O)Nc2ccc(C(F)(F)F)cc2)c(-c2ccc(Cl)c(Cl)c2)c1`, the IC50 was > 10 µM.

Regarding `COc1ccc(C(=O)Nc2ccc(C(F)(F)F)cc2)cc1-c1cccc(C(F)(F)F)c1`, the IC50 is > 10 µM.

As for `COc1cccc(-c2cc(C(=O)Nc3ccc([N+](=O)[O-])cc3)ccc2OC)c1`, the IC50 worked out at 4.04 µM.

For `COc1ccc(C(=O)Nc2ccc(C(F)(F)F)cc2)cc1-c1c(OC)cccc1OC`, the IC50 came out at 9.05 µM.

For `COc1ccc(C(=O)Nc2ccc(C(F)(F)F)cc2)c(-c2ccc(O)cc2)c1`, the IC50 is > 10 µM.

Consider `COc1ccc(-c2cc(OC)ccc2C(=O)Nc2ccc(C(F)(F)F)cc2)cc1`, for which the IC50 was > 10 µM.

Take `COc1ccc(C(=O)Nc2ccc(C(F)(F)F)cc2)cc1-c1ccc(Cl)c(C(F)(F)F)c1`: the IC50 was > 10 µM.

In the case of `COc1cccc(-c2cc(-c3nnnn3-c3ccc(C(F)(F)F)cc3)ccc2OC)c1`, the IC50 was 3.32 µM.

With `COc1ccc(C(=O)Nc2ccc(C(F)(F)F)cc2)cc1-c1cccc(OC)c1OC`, the IC50 was > 10 µM.

With `COc1ccc(C(=O)Nc2ccc(C(F)(F)F)cc2)c(-c2ccccc2)c1`, the IC50 is > 10 µM.

Regarding `COc1ccc(C(=O)Nc2ccc(C(F)(F)F)cc2)cc1-c1ccccc1`, the IC50 was > 10 µM.

Turning to `COc1ccc(C(=O)Nc2ccc(C(F)(F)F)cc2)cc1-c1ccc(Cl)cc1`, the IC50 was > 10 µM.

As to `COc1cccc(-c2cc(C(=O)Nc3ccccc3Cl)ccc2OC)c1`, the IC50 is > 10 µM.

Regarding `COc1ccc(C(=O)Nc2ccc(C(F)(F)F)cc2)cc1-c1cccc(F)c1`, the IC50 was > 10 µM.

In the case of `COC(=O)c1ccc(NC(=O)c2ccc(OC)c(-c3cccc(OC)c3)c2)cc1`, the IC50 is > 10 µM.

Consider `COc1ccc(C(=O)Nc2ccc(C(F)(F)F)cc2)cc1-c1ccc(O)cc1`, for which the IC50 was 6.39 µM.

Regarding `COc1cccc(-c2cc(C(=O)Nc3cccc(Cl)c3Cl)ccc2OC)c1`, the IC50 is > 10 µM.

Turning to `COc1cccc(-c2cc(C(=O)Nc3cccc([N+](=O)[O-])c3)ccc2OC)c1`, the IC50 was > 10 µM.

As for `COc1ccc(C(=O)Nc2ccc(C(F)(F)F)cc2)cc1-c1cccc(Cl)c1`, the IC50 was > 10 µM.

As to `COc1ccc(C(=O)Nc2ccc(C(F)(F)F)cc2)cc1-c1ccccc1O`, the IC50 was > 10 µM.

For `COc1ccc(C(=O)Nc2ccc(C(F)(F)F)cc2)c(-c2cccc(O)c2)c1`, the IC50 was > 10 µM.

For the compound `COc1cccc(-c2cc(C(=O)Nc3ccc(O)cc3)ccc2OC)c1`, the IC50 was > 10 µM.

For the compound `COc1ccc(C(=O)Nc2ccc(C(F)(F)F)cc2)c(-c2ccc(Cl)cc2)c1`, the 50% inhibitory concentration (IC50) was > 10 µM.

With `COc1cccc(-c2cc(C(=O)Nc3cccc(Cl)c3)ccc2OC)c1`, the IC50 is > 10 µM.

Consider `COc1ccc(C(=O)Nc2ccc(C(F)(F)F)cc2)cc1-c1cccc(N)c1`, for which the IC50 was 7.23 µM.

For `COc1cccc(-c2cc(C(=O)Nc3ccccc3)ccc2OC)c1`, the IC50 is > 10 µM.

For `COc1cccc(-c2cc(C(=O)Nc3ccc(F)cc3)ccc2OC)c1`, the IC50 is 6.32 µM.

For the compound `COc1ccc(C(=O)Nc2ccc(C(F)(F)F)cc2)cc1-c1ccc(C(F)(F)F)cc1`, the IC50 is > 10 µM.

`COc1cccc(-c2cc(C(=O)Nc3ccc(Cl)cc3Cl)ccc2OC)c1`: the IC50 was > 10 µM.

Take `COc1cccc(-c2cc(OC)ccc2C(=O)Nc2ccc(C(F)(F)F)cc2)c1`: the IC50 was > 10 µM.

For the compound `COc1ccc(C(=O)Nc2ccc(C(F)(F)F)cc2)c(-c2ccccc2OC)c1`, the IC50 was > 10 µM.

Take `COC(=O)c1cccc(NC(=O)c2ccc(OC)c(-c3cccc(OC)c3)c2)c1`: the IC50 is > 10 µM.

As to `COc1cccc(-c2cc(C(=O)Nc3ccc(C#N)cc3)ccc2OC)c1`, the IC50 was determined as 8.57 µM.

Take `COc1cccc(-c2cc(C(=O)Nc3ccc(C(F)(F)F)cc3)ccc2OC)c1`: the IC50 was 4.83 µM.

For the compound `COc1ccc(C(=O)Nc2ccc(C(F)(F)F)cc2)cc1-c1cccc(O)c1`, the IC50 is > 10 µM.

`COc1ccc(C(=O)Nc2ccc(C(F)(F)F)cc2)c(-c2ccc(Cl)c(C(F)(F)F)c2)c1`: the IC50 was > 10 µM.

For `COc1cc(NC(=O)c2ccc(OC)c(-c3cccc(OC)c3)c2)cc(OC)c1`, the IC50 is > 10 µM.

Take `COc1ccc(C(=O)Nc2ccc(C(F)(F)F)cc2)cc1-c1ccc(Cl)c(Cl)c1`: the IC50 is > 10 µM.

Take `COc1ccc(C(=O)Nc2ccc(C(F)(F)F)cc2)cc1-c1cccc(N(C)C)c1`: the 50% inhibitory concentration (IC50) turned out to be 3.36 µM.

For `COc1ccccc1-c1cc(C(=O)Nc2ccc(C(F)(F)F)cc2)ccc1OC`, the IC50 worked out at 9.65 µM.

For the compound `COc1ccc(NC(=O)c2ccc(OC)c(-c3cccc(OC)c3)c2)cc1`, the IC50 is > 10 µM.

Consider `COc1cccc(-c2cc(C(=O)Nc3ccc(OC)cc3OC)ccc2OC)c1`, for which the IC50 came out at 9.53 µM.

On to `COc1ccc(-c2cc(C(=O)Nc3ccc(C(F)(F)F)cc3)ccc2OC)cc1`, for which the IC50 is > 10 µM.

Consider `COc1cccc(-c2cc(C(=O)Nc3ccc(Cl)cc3)ccc2OC)c1`, for which the half-inhibitory concentration (IC50) stood at 6.03 µM.

`COc1ccc(C(=O)Nc2ccc(C(F)(F)F)cc2)cc1-c1cccc(CO)c1`: the half-inhibitory concentration (IC50) is > 10 µM.

A further test has as its system SH-SY5Y. The test is described as follows: Disruption of Aha1/Hsp90 alpha protein-protein interaction in human SH-SY5Y cells lysate at 10 uM incubated for 24 hrs by co-immunoprecipitation assay. Format: subcellular.
For `COc1cccc(-c2cc(-c3nnnn3-c3ccc(C(F)(F)F)cc3)ccc2OC)c1`, the result was Active.

For the compound `COc1cccc(-c2cc(C(=O)Nc3ccc(C(F)(F)F)cc3)ccc2OC)c1`, the result was Active.

Turning to `COc1ccc(C(=O)Nc2ccc(C(F)(F)F)cc2)cc1-c1cccc(N(C)C)c1`, the outcome was Active.

For another test, the species on record is Homo sapiens. The test is described as follows: Disruption of recombinant human Aha1/Hsp90 alpha protein-protein interaction expressed in Escherichia coli […] assessed as inhibition of recombinant human P301L tau aggregation incubated for 30 mins by ThT fluorescence assay.
Turning to `COc1cccc(-c2cc(-c3nnnn3-c3ccc(C(F)(F)F)cc3)ccc2OC)c1`, the result was Active.

With `COc1ccc(C(=O)Nc2ccc(C(F)(F)F)cc2)cc1-c1cccc(N(C)C)c1`, the result was Active.

The next test deals with SK-BR-3. The test is described as follows: Disruption of Aha1/Hsp90 protein-protein interaction in human SK-BR-3 cells lysate at 10 uM incubated for 24 hrs by co-immunoprecipitation assay. Format: subcellular.
With `COc1cccc(-c2cc(-c3nnnn3-c3ccc(C(F)(F)F)cc3)ccc2OC)c1`, the result was Active.

Take `COc1cccc(-c2cc(C(=O)Nc3ccc(C(F)(F)F)cc3)ccc2OC)c1`: the outcome was Active.

Consider `COc1ccc(C(=O)Nc2ccc(C(F)(F)F)cc2)cc1-c1cccc(N(C)C)c1`, for which the outcome was Active.
